Assay results published in patent US20160362418A1, “CARBOXAMIDE-SUBSTITUTED XANTHENE DYES” (priority 2015, published 2016).

Assay: Spectral properties of fluorescent dyes (Abs/Em)
Type: physicochemical
Conditions: for Abs: absorbance maximum, first number of Abs/Em; for Em: emission maximum, second number of Abs/Em
Text: The spectral properties of dyes can be tuned by modifying the rhodamine core of dyes.

| Abs | Em | SMILES |
| --- | --- | --- |
| 518 nm | 539 nm | CC(=O)O.CN(CCS(=O)(=O)O)C(=O)c1ccccc1-c1c2ccc(=N)cc-2oc2cc(N)ccc12 [Compound 1] |
| 601 nm | 623 nm | CC(=O)O.CN(CCS(=O)(=O)[O-])C(=O)c1ccccc1C1=c2cc3c(cc2Oc2cc4c(cc21)C(CS(=O)(=O)O)=CC(C)(C)N4C)=[N+](C)C(C)(C)C=C3CS(=O)(=O)O [Compound 6] |
